The source made the active and inactive calls. No cut-off for these calls is given here.

This passage reports Activity and inhibition results from ChEMBL document CHEMBL3632472, “Bastadins, brominated-tyrosine derivatives, suppress accumulation of cholesterol ester in macrophages” (Bioorg Med Chem Lett, 2015).

In data set [1] the test system is MDM. The data set is described as follows: Effect on CD36 expression in human MDM cells at 5 uM for 24 hrs by western blot analysis. It counts as functional, cell-based. On the technique in general: Immunoblotting shows a protein as a band on a membrane.
A short description of data set [2]: Cytotoxicity against human MDM cells at 5 uM after 24 hrs. It counts as cell-based.
The target of data set [3] is T1, Sterol O-acyltransferase 1 (Homo sapiens) (UniProt P35610).
T1 sequence (whole entry): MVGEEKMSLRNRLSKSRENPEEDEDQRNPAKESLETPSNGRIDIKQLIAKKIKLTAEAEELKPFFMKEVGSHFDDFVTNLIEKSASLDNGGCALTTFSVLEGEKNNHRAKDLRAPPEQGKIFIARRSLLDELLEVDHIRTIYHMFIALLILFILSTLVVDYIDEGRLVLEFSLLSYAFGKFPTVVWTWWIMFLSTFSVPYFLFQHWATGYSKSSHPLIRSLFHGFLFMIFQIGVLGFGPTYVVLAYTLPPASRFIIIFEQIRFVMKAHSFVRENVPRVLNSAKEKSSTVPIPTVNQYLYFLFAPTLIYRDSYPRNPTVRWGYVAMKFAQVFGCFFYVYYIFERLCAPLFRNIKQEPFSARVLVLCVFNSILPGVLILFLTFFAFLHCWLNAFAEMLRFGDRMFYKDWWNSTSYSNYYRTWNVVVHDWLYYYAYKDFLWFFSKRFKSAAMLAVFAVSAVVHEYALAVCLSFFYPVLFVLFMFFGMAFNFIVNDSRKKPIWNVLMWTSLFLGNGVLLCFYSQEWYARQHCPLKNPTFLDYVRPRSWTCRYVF
The data set can be described thus: Inhibition of human ACAT1 expressed in CHO cells assessed as inhibition of [3H]cholesterol ester accumulation at 5 uM in presence of 0.1 mM [3H]oleate-conjugated BSA. It counts as cell-based.

The test system of data set [4] is MDM. The data set is described as follows: Effect on ACAT2 expression in human MDM cells at 5 uM for 24 hrs by western blot analysis. It counts as functional, cell-based.
Data set [5] concerns MDM. The data set is described as follows: Effect on SR-A expression in human MDM cells at 5 uM for 24 hrs by western blot analysis. It counts as functional, cell-based.
Data set [6] concerns the target T1, Sterol O-acyltransferase 1 (Homo sapiens). The data set can be described thus: Inhibition of human ACAT1 expressed in CHO cells at 5 uM using [14C]oleoyl-CoA as substrate. It counts as cell-based.
The test system of data set [7] is MDM. The data set can be described thus: Effect on phospholipid accumulation in human MDM cells at 5 uM after 24 hrs in presence of 50 ug/ml acetylated LDL and 0.1 mM [3H]oleate. It counts as functional, cell-based.
The subject of data set [8] is MDM. The data set is described as follows: Inhibition of human ACAT in MDM cells microsomal fraction assessed as inhibition of cholesteryl [14C]oleate formation at 5 uM for 15 mins in presence of [14C]oleoyl-CoA. In kind it is cell-based.
Data set [9] has as its target T2, Sterol O-acyltransferase 2 (Homo sapiens) (UniProt O75908).
T2 sequence (whole entry): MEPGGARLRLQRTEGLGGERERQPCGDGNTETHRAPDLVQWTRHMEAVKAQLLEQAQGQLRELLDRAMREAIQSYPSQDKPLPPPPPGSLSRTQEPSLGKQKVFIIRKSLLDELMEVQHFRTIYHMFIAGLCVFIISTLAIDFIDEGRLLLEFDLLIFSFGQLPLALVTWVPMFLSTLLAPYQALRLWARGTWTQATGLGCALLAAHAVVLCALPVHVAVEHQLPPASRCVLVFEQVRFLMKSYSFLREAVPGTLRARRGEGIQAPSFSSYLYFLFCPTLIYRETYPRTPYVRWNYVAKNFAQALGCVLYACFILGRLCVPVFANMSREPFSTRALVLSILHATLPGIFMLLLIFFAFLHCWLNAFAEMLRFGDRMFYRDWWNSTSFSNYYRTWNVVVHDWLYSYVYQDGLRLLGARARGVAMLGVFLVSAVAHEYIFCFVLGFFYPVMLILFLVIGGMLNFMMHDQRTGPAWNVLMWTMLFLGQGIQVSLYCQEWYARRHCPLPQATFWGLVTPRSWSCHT
The data set is described as follows: Inhibition of human ACAT2 expressed in CHO cells at 5 uM using [14C]oleoyl-CoA as substrate. In kind it is cell-based.

The test system of data set [10] is MDM. The data set is described as follows: Effect on SR-BI expression in human MDM cells at 5 uM for 24 hrs by western blot analysis. In kind it is functional, cell-based.
The subject of data set [11] is MDM. The data set can be described thus: Effect on triacylglycerol accumulation in human MDM cells at 5 uM after 24 hrs in presence of 50 ug/ml acetylated LDL and 0.1 mM [3H]oleate. It counts as functional, cell-based.
Data set [12] deals with T2, Sterol O-acyltransferase 2 (Homo sapiens). The data set is described as follows: Inhibition of human ACAT2 expressed in CHO cells assessed as inhibition of [3H]cholesterol ester accumulation at 5 uM in presence of 0.1 mM [3H]oleate-conjugated BSA. In kind it is cell-based.
For a further data set, the system named is CHO. The data set is described as follows: Cytotoxicity against CHO cells at 5 uM. The settings on record: chinese hamster. In kind it is cell-based, Cricetulus griseus.
In data set [13] the test system is MDM. The data set is described as follows: Inhibition of ACAT in human MDM cells assessed as inhibition of foam cell formation by measuring acetylated LDL-induced [3H]cholesterol ester accumulation at 5 uM after 24 hrs in presence of 0.1 mM [3H]oleate. It counts as cell-based.
Data set [14] concerns MDM. The data set can be described thus: Effect on ACAT1 expression in human MDM cells at 5 uM for 24 hrs by western blot analysis. In kind it is functional, cell-based.

In general, inhibition refers to the drop in the measured response relative to a control, in per cent. As for `O=C1NCCc2cc(Br)c(O)c(c2)Oc2c(Br)cc(cc2Br)CCNC(=O)/C(=N/O)Cc2cc(Br)c(O)c(c2)Oc2c(Br)cc(cc2Br)C/C1=N\O` [BASTADIN 6], the result with MDM [1], in the data set on MDM [4], in the data set with MDM [5], in the data set on MDM [7], with MDM [10] and in the data set on MDM [11] was inactive. Moreover, in the data set with MDM [14], the result was inactive. Besides, the Activity result (in [2]; with CHO) was “Non-toxic” each time. Besides, the inhibition in [3] is 86%; in data set [6], 82%; in [9], 89%; in data set [12], 87%; with MDM [13] it was 96%. The inhibition entry with MDM [8] was “Active”.

With `O=C1NCCc2ccc(O)c(c2)Oc2c(Br)cc(cc2Br)CCNC(=O)/C(=N/O)Cc2cc(Br)c(O)c(c2)Oc2c(Br)cc(cc2Br)C/C1=N\O` [BASTADIN 16], the Activity result (in data set [2]; with CHO) was “Non-toxic” in each case. For the same compound, the inhibition in [3] worked out at 57%; in data set [6], 61%; in data set [9], 58%; in data set [12], 61%; with MDM [13], 88%. Besides, the result in the data set with MDM [7] and in the data set on MDM [11] was inactive.

`O=C1N/C=C/c2ccc(c(Br)c2)Oc2cc(cc(Br)c2O)CCNC(=O)/C(=N/O)Cc2cc(Br)c(c(Br)c2)Oc2cc(cc(Br)c2O)C/C1=N\O` [BASTADIN 4]: in [2], the Activity result is “Non-toxic”. Further, the inhibition result in [3] and in data set [12] was “inactive” in each case. Further, the inhibition in the data set on MDM [13] was 36%.

Regarding `O=C(NCCc1ccc(O)c(Br)c1)/C(Cc1ccc(O)c(Br)c1)=N\O` [HEMIBASTADIN 1], the Activity entry in [2] is “Non-toxic”. For the same compound, the inhibition entry in data set [3] and in data set [12] was “inactive” throughout. Further, the inhibition in the data set with MDM [13] stood at 5%.

For the compound `O=C1NCCc2cc(Br)c(O)c(c2)Oc2ccc(cc2Br)CCNC(=O)/C(=N\O)Cc2cc(Br)c(O)c(c2)Oc2c(Br)cc(cc2Br)C/C1=N/O` [BASTADIN 5], in [2], the Activity entry is listed as “Non-toxic”. In addition, the inhibition result in data set [3] and in data set [12] was “inactive” in each case. Besides, in the data set on MDM [13], the inhibition was determined as 58%.

With `O=C1NCCc2ccc(O)c(c2)Oc2ccc(cc2Br)CCNC(=O)/C(=N/O)Cc2cc(Br)c(O)c(c2)Oc2c(Br)cc(cc2Br)C/C1=N\O`, the Activity result in data set [2] is recorded as “Non-toxic”. Besides, the inhibition entry in data set [3], in data set [6], in [9] and in data set [12] was “inactive” each time. Moreover, in the data set on MDM [13], the inhibition is 80%.

On to `O=C1NCCc2cc(Br)c(O)c(c2)Oc2c(Br)cc(cc2Br)[C@H](O)CNC(=O)/C(=N/O)Cc2cc(Br)c(O)c(c2)Oc2ccc(cc2Br)C/C1=N\O` [BASTADIN 12], for which the Activity entry in [2] is recorded as “Non-toxic”. Further, the inhibition result in [3], in data set [6], in data set [9] and in data set [12] was “inactive” each time. Also, the inhibition in the data set with MDM [13] came to 80%.

Turning to `O=C1N/C=C/c2ccc(c(Br)c2)Oc2cc(cc(Br)c2O)CCNC(=O)/C(=N/O)Cc2ccc(c(Br)c2)Oc2cc(cc(Br)c2O)C/C1=N\O` [BASTADIN 7], the Activity entry in data set [2] is recorded as “Non-toxic”. Moreover, the inhibition result in data set [3] and in data set [12] was “inactive” each time. Further, the inhibition in the data set with MDM [13] is 39%.
